We go through 7 compounds from PubChem BioAssay (NCI).

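Where inhibition never reached the appropriate level, the endpoint shown equals the highest concentration tested. Otherwise, values were interpolated linearly from a five-concentration, 48-hour dose response in 96-well plates. The concentration for 50% growth inhibition is given as GI50. TGI denotes the concentration required for complete inhibition of growth.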 Where only a bound is given, the exact number is not on record here.

What all share (assay): growth of human tumour cells (NCI), 48 h
Experiment [1] concerns A498 renal.
Experiment [2] has as its system HT29 colon.
The test system of experiment [3] is K-562 leukemia.
Experiment [4] has as its system LOX IMVI melanoma.
The subject of experiment [5] is NCI-H23 lung.
Experiment [6] has as its system NCI/ADR-RES ovarian.
Experiment [7] has as its system OVCAR-4 ovarian.
The test system of experiment [8] is PC-3 prostate.
Experiment [9] relates to SR leukemia.
The subject of experiment [10] is UACC-257 melanoma.

For the compound `COc1ccc(-c2nn(-c3cccc(Cl)c3)cc2C2CC(c3ccccc3)=NN2C(C)=O)cc1` (stereo unspecified), the GI50 in [1] was 3.33 µM; in [2], 5.49 µM; in [3] it was more than 100 µM; in experiment [4] it was 11 µM; in [5], 10.1 µM; in experiment [6], 6.96 µM. Also, the GI50 is 3.38 µM in experiment [7], 6.8 µM in experiment [8], 8.98 µM in experiment [9] and 32.1 µM in [10]. The TGI in [1] was 50.4 µM; in [2], more than 100 µM; in experiment [3], more than 100 µM; in experiment [4], more than 100 µM; in experiment [5], more than 100 µM; in [6] it was more than 100 µM. Further, the TGI is 29.2 µM in experiment [7], more than 100 µM in experiment [8], more than 100 µM in experiment [9] and more than 100 µM in experiment [10].

As for `C[C@@H]1CC[C@H]2C(COCC3=C(C(F)(F)F)O[C@@H]4O[C@@]5(C)CC[C@H]6[C@H](C)CC[C@@H]3[C@@]46OO5)=C(C(F)(F)F)O[C@@H]3O[C@@]4(C)CC[C@@H]1[C@]32OO4`, the GI50 was 32.7 µM in experiment [1]; less than 0.01 µM in [2]; less than 0.01 µM in [3]; less than 0.01 µM in [5]; 0.543 µM in experiment [6]; 0.0251 µM in [7]. Besides, the GI50 in [8] and in experiment [9] was less than 0.01 µM each time. Also, the TGI in experiment [1], in [2], in experiment [3], in [5], in [6] and in experiment [7] was more than 100 µM each time. Moreover, the TGI in [8] and in experiment [9] was more than 100 µM throughout.

As for `CCn1c(-c2nonc2N)nc2c(C#CCN)ncc(OCCCN)c21`, the GI50 in experiment [1] was more than 18.6 µM; in [2] it was more than 25 µM; in [3], more than 25 µM; in experiment [4] it was more than 25 µM; in experiment [5], more than 25 µM; in experiment [6], more than 25 µM. The GI50 in experiment [7], in experiment [8], in experiment [9] and in experiment [10] was more than 25 µM in each case. The TGI in experiment [1], in experiment [2], in [3], in [4], in experiment [5] and in experiment [6] was more than 25 µM throughout. Also, the TGI in experiment [7], in experiment [8], in [9] and in experiment [10] was more than 25 µM throughout.

Regarding `CN1CCN(Cc2ccc(C(=O)Nc3cncc(C#Cc4cnc(N)c5ccccc45)c3)cc2C(F)(F)F)CC1`, the GI50 in experiment [1] is 1.52 µM; in [2], 2.05 µM; in experiment [4] it was 1.75 µM; in experiment [5], 1.85 µM; in experiment [6], 1.93 µM; in experiment [7] it was 1.18 µM. Moreover, the GI50 was 2.74 µM in experiment [8], 2.09 µM in experiment [9] and 2.14 µM in [10]. For the same compound, the TGI turned out to be 3.73 µM in [1]; 5.02 µM in experiment [2]; 1.15 µM in [3]; 3.17 µM in experiment [4]; 4.41 µM in experiment [5]; 4.22 µM in [6]. In addition, the TGI was found to be 3.05 µM in experiment [7], 10.1 µM in [8], 5.17 µM in experiment [9] and 4.34 µM in experiment [10].

Take `CC(=O)OCC1OC(O[C@@H]2C[C@H]3C(C)(C)[C@H](OC(C)=O)CC[C@]3(C)[C@H]3CCC4=C([C@@H](C)C[C@@H](O)[C@H](O)C(C)(C)O)CC[C@@]4(C)[C@@]32C)C(O)C(O)C1O` (stereo partly specified): the GI50 was 17.2 µM in experiment [1]; 16.6 µM in experiment [2]; 12.7 µM in experiment [3]; 12.5 µM in experiment [4]; 16.7 µM in experiment [5]; 20.4 µM in experiment [6]. Besides, the GI50 was 17 µM in experiment [7], 14.5 µM in experiment [8], 12.2 µM in experiment [9] and 16.3 µM in [10]. Also, the TGI came to 31.1 µM in [1]; 30.2 µM in [2]; 32.5 µM in [3]; 25 µM in experiment [4]; 30.4 µM in experiment [5]; 43.5 µM in [6]. The TGI in [7] worked out at 31.1 µM; in [8], 27.9 µM; in [9], 27.8 µM; in [10], 30.3 µM.

In the case of `C=C1C(O)C2CCC(C)(C)C(=O)C2=C(CC(C)C)C12CC2` (stereo unspecified), the GI50 in [2] is 76.6 µM; in experiment [3], 31.9 µM; in experiment [4], 68.5 µM; in [5], 66.7 µM; in experiment [6], 45.4 µM; in experiment [7] it was more than 100 µM. Besides, the GI50 in experiment [8] was 33.2 µM; in experiment [9], 34 µM; in experiment [10], 88 µM. Further, the TGI in experiment [2], in [3], in experiment [4], in experiment [5], in [6] and in [7] was more than 100 µM in each case. Besides, the TGI in experiment [8], in experiment [9] and in experiment [10] was more than 100 µM in each case.

Turning to `O=C1/C(=C/c2ccc(F)cc2)CCOc2ccc([N+](=O)[O-])cc21`, the GI50 is 17.4 µM in experiment [1]; 0.964 µM in [3]; 35.9 µM in experiment [4]; 1.95 µM in experiment [5]; 2.12 µM in experiment [6]; 16.7 µM in experiment [7]. The GI50 in experiment [8] was 0.306 µM; in experiment [9], 2.07 µM; in experiment [10], 2.62 µM. In addition, the TGI in experiment [1] was 35 µM; in experiment [3], more than 100 µM; in experiment [4], more than 100 µM; in experiment [5], 4.51 µM; in experiment [6], 4.99 µM; in experiment [7], 36.5 µM. Further, the figures for the TGI in [8], in [9] and in experiment [10] were 1.64 µM, 6.35 µM and 6.29 µM, respectively.
